The conditions of assay [1]: compound concentration 10 ppm, foliar spray, evaluated 7 days after inoculation.
Assay [2] has as its system C. albicans ATCC 90028. As to the kind of experiment: Anti-Fungal Activity Assay (broth microtiter MIC), C. albicans. The class given is cell-based, Candida albicans. As to conditions: Candida albicans, ATCC90028, 48 h, 3 replicates; MIC recorded at 48 h; read-out: MIC C. albicans ATCC 90028. The gist of the method: (§1)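 MIC by visual comparison with growth control, read at 48 h (soraphen also at 24 h). Inoculum: colonies from overnight Sabouraud dextrose agar plates at 35° C, suspended in RPMI 1640+MOPS, density from standard curves. Microtiter broth dilution per CLSI M27-A3; compounds from 1 mg/mL DMSO stocks.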

Assay [3] has as its system Botrtyis cinerea (Bc). Kind of assay: Growth inhibition assay of fungal pathogens, Bc. The format is cell-based. The note with it: 48 hours; read-out: Concentration at 90% Inhibition, Bc. As for the experimental part: (§2) Compounds of the present invention were evaluated in a growth inhibition assay to determine the ability to control the growth of fungal pathogens, such as Botrtyis cinerea (Bc). Collectotrichum graminicola (Cg), Diplodia maydis (Dm), Fusarium moniliforme (Fm), Fusarium virguliforme (Fv), Phytophthora capsici (Pc), Rhizoctonia solani (Rs), and Septoria tritici (St). Compounds to be tested were dissolved in DMSO at 2.5 mg/ml to produce compound stock solutions (“stocks”). Stocks were diluted with DMSO by a five-fold dilution in a 96-well stock plate, and two sets of final concentrations of 50, 10, and 2 ppm or 2, 0.4, and 0.08 ppm were obtained in vitro. A set of positive controls was also prepared, with various concentrations of Soraphen (2, 0.4, and 0.08 ppm), Metalaxyl (1.1, 0.22, and 0.04 ppm), and Metconazole (2, 0.4, and 0.08 ppm or 0.2, 0.04, and 0.008 ppm) after the five-fold dilutions. Negative controls on each plate included 2% DMSO, water, and a blank (media+2% DMSO). Fungal spores were isolated from previously sub-cultured plates of Botrtyis cinerea (Bc), Collectotrichum graminicola (Cg), Diplodia maydis (Dm), Fusarium moniliforme (Fm), Fusarium virguliforme (Fv), Phytophthora capsici (Pc), and Septoria tritici (St). The isolated spores were diluted to individual concentrations with a 17% V8 liquid media. For Rhizoctonia solani (Rs) and Pythium irregulare, 1.5 mm mycelial plugs were used in place of spores and ¼ Potato Dextrose Broth (PDB) was used for dilution. The spore concentrations and plug sizes were based on growth curves generated at 48 hours for each pathogen. In a second 96-well plate, the spores or mycelial plugs, media, diluted compound solutions, and controls were combined. Once the compound was added, a true final concentration of compound in each well was measured by an OD600 reading, which adjusted for any compound precipitation that might have occurred in the well. Plate readings were repeated at both 24 and 48 hours. The blank negative control was used as a background subtraction. Additional visual ratings were performed at both 24 and 48 hours for checking on precipitation and confirming efficacy. Visual and OD600 ratings of the compounds at 48 hours were compared to the 2% DMSO negative control, and the percent of pathogen growth inhibition was determined based on those values.

In assay [4] the test system is Septoria tritici (St). Kind of assay: Growth inhibition assay of fungal pathogens, St. The format is cell-based. The note with it: Zymoseptoria tritici; 48 hours; read-out: Concentration at 90% Inhibition, St. As for the experimental part:
as §2

Assay [5] relates to C. parapsilosis ATCC 22019. As to the kind of experiment: Anti-Fungal Activity Assay (broth microtiter MIC), C. parapsilosis. The format is cell-based, Candida parapsilosis. The note with it: Lodderomyces parapsilosis, ATCC22019, 48 h, 3 replicates; MIC recorded at 48 h; read-out: MIC C. parapsilosis ATCC 22019. In short, it runs like this: as §1
The subject of assay [6] is Phytophthora capsici (Pc). Kind of assay: Growth inhibition assay of fungal pathogens, Pc. The format is cell-based. As to conditions: 48 hours, read-out: Concentration at 90% Inhibition, Pc. As for the experimental part: as §2
Assay [7] deals with Fusarium virguliforme (Fv). Kind of assay: Growth inhibition assay of fungal pathogens, Fv. The class given is cell-based. As to conditions: 48 hours, read-out: Concentration at 90% Inhibition, Fv. As for the experimental part: as §2
For assay [8], the system named is Fusarium moniliforme (Fm). Kind of assay: Growth inhibition assay of fungal pathogens, Fm. The note with it: Fusarium verticillioides; 48 hours; read-out: Concentration at 90% Inhibition, Fm. The class given is cell-based. As to the method: as §2
The target in assay [9] is Human ACC2 (Homo sapiens, UniProt O00763). Kind of assay: In vitro ACC2 inhibition assay (ADP-Glo), human ACC2. The format is biochemical. The note with it: 5 nM ACC2, 20 μM ATP, 20 μM acetyl-CoA. (ADP-Glo turns the ADP formed in a reaction into a luminescent signal.)
Assay [10] deals with Collectotrichum graminicola (Cg). As to the kind of experiment: Growth inhibition assay of fungal pathogens, Cg. The class given is cell-based. The note with it: 48 hours; read-out: Concentration at 90% Inhibition, Cg. As for the experimental part:
as §2

Assay [11] concerns C. krusei ATCC 6258. Kind of assay: Anti-Fungal Activity Assay (broth microtiter MIC), C. krusei. The class given is cell-based, Candida krusei. The note with it: Pichia kudriavzevii, ATCC6258, 48 h, 3 replicates; MIC recorded at 48 h; read-out: MIC C. krusei ATCC 6258. The gist of the method:
as §1

Assay [12] concerns Rhizoctonia solani (Rs). Kind of assay: Growth inhibition assay of fungal pathogens, Rs. The format is cell-based. The note with it: 48 hours, read-out: Concentration at 90% Inhibition, Rs. As for the experimental part:
as §2

Assay [13] concerns the target Fungal ACC2 (UniProt Q00955). As to conditions: read-out: Fungal ACC2 (IC50, in vitro ACC2 inhibition).
Assay [14] has as its system Diplodia maydis (Dm). Kind of assay: Growth inhibition assay of fungal pathogens, Dm. The note with it: Stenocarpella maydis; 48 hours; read-out: Concentration at 90% Inhibition, Dm. The format is cell-based. As for the experimental part:
as §2

≈ marks a conversion by molar mass, not a printed value.

What is called MIC is the lowest concentration that inhibits growth of the organism. The IC50 is the midpoint of a concentration-inhibition curve.

Sequence of Fungal ACC2 (Q00955 whole entry): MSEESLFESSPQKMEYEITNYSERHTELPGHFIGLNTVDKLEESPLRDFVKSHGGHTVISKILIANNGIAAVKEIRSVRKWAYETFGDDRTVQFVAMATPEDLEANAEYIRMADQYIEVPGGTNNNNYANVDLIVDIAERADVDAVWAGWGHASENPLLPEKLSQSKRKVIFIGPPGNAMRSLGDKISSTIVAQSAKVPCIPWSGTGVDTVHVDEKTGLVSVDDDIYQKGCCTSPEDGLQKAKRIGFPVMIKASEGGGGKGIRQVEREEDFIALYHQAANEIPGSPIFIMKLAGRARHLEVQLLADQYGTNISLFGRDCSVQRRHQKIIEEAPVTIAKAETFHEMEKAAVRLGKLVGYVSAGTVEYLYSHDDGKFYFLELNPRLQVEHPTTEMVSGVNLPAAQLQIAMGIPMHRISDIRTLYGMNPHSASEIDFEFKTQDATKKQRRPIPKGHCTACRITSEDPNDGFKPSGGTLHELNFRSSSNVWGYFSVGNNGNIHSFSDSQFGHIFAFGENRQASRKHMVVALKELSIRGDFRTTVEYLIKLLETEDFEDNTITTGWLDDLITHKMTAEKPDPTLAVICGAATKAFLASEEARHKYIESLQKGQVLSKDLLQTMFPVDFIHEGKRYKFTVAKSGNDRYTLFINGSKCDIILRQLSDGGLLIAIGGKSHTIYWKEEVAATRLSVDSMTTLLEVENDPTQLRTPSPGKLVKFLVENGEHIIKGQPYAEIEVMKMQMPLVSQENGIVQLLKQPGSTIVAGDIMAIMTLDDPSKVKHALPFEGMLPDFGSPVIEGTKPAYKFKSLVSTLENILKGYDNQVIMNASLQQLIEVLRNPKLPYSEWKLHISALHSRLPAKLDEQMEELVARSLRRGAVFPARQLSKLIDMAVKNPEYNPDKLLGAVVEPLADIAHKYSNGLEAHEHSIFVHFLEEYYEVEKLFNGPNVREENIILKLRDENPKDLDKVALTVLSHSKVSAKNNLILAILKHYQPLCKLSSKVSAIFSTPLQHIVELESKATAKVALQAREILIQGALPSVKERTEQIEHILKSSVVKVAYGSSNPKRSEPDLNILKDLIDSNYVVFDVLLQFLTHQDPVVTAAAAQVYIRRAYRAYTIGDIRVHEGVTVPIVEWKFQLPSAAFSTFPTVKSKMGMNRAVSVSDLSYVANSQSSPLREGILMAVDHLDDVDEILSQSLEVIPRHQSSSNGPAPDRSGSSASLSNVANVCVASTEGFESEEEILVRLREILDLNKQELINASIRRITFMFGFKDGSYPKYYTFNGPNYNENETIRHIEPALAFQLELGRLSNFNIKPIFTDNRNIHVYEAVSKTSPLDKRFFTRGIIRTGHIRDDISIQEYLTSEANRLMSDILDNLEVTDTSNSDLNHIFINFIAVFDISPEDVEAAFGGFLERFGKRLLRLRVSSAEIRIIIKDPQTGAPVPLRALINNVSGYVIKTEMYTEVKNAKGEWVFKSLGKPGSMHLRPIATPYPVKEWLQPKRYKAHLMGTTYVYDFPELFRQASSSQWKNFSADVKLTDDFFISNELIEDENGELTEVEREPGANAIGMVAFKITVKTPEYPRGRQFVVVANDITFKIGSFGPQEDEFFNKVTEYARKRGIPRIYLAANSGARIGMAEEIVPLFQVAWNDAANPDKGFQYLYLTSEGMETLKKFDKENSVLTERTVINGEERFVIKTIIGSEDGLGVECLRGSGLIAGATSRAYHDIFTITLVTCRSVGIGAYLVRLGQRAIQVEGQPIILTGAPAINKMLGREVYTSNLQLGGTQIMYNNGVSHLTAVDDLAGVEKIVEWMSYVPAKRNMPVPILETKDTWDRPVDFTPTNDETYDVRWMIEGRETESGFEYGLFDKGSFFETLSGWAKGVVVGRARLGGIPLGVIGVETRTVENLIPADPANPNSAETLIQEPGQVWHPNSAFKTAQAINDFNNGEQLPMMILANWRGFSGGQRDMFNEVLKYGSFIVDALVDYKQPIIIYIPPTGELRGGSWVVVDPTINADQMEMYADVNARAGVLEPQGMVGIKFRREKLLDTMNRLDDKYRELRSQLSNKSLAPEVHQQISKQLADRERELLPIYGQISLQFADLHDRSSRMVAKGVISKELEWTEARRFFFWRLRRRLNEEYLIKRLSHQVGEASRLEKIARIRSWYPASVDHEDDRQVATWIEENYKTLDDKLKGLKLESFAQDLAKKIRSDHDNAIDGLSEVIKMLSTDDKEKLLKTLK
Sequence of Human ACC2 (O00763 whole entry): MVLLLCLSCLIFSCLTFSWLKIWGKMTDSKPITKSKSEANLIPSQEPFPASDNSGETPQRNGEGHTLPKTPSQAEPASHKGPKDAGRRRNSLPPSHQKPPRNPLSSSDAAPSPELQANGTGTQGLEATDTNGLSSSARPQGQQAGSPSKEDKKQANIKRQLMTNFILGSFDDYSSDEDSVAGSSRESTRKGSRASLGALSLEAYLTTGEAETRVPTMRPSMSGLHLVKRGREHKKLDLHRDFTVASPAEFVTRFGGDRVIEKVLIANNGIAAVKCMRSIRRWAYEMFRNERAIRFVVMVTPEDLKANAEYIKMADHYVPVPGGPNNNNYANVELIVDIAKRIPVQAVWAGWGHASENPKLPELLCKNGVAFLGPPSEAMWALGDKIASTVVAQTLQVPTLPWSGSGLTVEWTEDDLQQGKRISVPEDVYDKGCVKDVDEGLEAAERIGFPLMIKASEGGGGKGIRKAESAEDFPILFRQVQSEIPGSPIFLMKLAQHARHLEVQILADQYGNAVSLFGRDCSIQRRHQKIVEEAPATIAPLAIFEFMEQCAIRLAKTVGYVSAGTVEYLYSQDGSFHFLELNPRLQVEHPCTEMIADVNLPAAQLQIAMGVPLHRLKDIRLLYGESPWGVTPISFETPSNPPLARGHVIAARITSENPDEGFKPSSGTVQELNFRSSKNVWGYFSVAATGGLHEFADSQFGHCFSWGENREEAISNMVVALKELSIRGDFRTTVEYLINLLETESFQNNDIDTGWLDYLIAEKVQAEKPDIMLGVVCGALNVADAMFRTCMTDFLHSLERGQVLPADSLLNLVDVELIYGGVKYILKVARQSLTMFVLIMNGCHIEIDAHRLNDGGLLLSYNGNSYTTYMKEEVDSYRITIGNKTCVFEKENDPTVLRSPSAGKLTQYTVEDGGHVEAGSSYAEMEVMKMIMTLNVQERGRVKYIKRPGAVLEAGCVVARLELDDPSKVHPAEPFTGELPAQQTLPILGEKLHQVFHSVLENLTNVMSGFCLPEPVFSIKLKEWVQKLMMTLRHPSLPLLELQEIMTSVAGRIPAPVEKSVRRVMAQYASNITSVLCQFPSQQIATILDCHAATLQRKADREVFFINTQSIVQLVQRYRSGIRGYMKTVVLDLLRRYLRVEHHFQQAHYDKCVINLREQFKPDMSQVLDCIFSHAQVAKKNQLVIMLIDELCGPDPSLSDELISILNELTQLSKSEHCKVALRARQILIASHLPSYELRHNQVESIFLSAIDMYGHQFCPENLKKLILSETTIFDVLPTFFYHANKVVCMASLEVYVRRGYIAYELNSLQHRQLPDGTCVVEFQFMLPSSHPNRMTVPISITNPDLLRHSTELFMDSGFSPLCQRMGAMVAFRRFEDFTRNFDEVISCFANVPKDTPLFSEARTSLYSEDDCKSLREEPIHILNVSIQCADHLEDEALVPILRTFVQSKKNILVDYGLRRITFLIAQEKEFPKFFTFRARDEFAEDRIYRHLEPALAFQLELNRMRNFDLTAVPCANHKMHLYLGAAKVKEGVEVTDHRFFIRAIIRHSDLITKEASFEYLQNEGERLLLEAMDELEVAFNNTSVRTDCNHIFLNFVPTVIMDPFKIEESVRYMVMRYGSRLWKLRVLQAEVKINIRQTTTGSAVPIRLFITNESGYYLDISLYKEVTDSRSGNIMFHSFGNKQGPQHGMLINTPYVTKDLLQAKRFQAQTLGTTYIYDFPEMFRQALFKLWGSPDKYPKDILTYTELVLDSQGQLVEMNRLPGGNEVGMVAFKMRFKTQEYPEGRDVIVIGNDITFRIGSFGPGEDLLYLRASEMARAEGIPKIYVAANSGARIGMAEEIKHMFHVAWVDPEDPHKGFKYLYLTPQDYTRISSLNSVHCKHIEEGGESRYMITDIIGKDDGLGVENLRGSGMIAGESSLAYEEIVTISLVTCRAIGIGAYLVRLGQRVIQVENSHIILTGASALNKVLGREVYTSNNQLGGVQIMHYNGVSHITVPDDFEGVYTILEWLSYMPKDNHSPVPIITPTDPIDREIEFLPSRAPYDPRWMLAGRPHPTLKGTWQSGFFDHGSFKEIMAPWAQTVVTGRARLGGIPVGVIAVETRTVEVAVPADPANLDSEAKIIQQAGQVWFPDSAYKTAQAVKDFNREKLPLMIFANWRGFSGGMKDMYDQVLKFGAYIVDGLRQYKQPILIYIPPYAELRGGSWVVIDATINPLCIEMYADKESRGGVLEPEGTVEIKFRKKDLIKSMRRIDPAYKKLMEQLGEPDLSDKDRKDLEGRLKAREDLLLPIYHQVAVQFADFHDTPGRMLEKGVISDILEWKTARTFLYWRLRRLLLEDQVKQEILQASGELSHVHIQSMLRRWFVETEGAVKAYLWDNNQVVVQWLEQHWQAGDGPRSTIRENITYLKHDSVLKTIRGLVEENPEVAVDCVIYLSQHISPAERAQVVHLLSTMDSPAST

On to `COc1ccc(F)cc1[C@H](Cn1c(=O)n([C@H]2CCN(C)C2=O)c(=O)c2c(C)c(-n3nccn3)sc21)OCCC#N` [Compound I-108, 3-((R)-1-(5-fluoro-2-methoxyphenyl)-2-(5-methyl-3-((S)-1-methyl-2-oxopyrrolidin-3-yl)-2,4-dioxo-6-(2H-1,2,3-triazol-2-yl)-3,4-dihydro-thieno[2,3-d]pyrimidin-1 (2H)-yl)ethoxy)propanenitrile], for which the “Barley Powdery Mildew Control at 10 ppm” value in assay [1] is recorded as “AA (provided a compound having >85% control of barley powdery mildew)”. Also, the MIC in assay [2], in [5] and in assay [11] was 2.1 to 4 µg/mL (≈ 3.7 to 7.05 µM) each time. The IC90 in assay [3] was 0.4 µg/mL (≈ 0.705 µM); in assay [4] it was greater than 50 µg/mL; in assay [6], greater than 50 µg/mL; in assay [7], 2 µg/mL (≈ 3.52 µM); in assay [8], 0.08 µg/mL (≈ 0.141 µM); in assay [10], 10 µg/mL (≈ 17.6 µM). Further, the IC90 was 2 µg/mL (≈ 3.52 µM) in [12] and 10 µg/mL (≈ 17.6 µM) in [14]. In addition, the half-maximal inhibitory concentration (IC50) in assay [9] was 2 to 10 nM; in [13] it was 0.7 to 2 nM.

On to `COc1ccc(F)cc1[C@H](Cn1c(=O)n([C@@H]2CCN(C)C2=O)c(=O)c2c(C)c(-n3nccn3)sc21)OCCC#N` [Compound I-109, 3-((R)-1-(5-fluoro-2-methoxyphenyl)-2-(5-methyl-3-((R)-1-methyl-2-oxopyrrolidin-3-yl)-2,4-dioxo-6-(2H-1,2,3-triazol-2-yl)-3,4-dihydro-thieno[2,3-d]pyrimidin-1(2H)-yl)ethoxy)propanenitrile], for which, in [1], the “Barley Powdery Mildew Control at 10 ppm” value is recorded as “A (provided a compound having from 70% to 84% control of barley powdery mildew)”. Further, the MIC in assay [2], in [5] and in assay [11] was 2.1 to 4 µg/mL (≈ 3.7 to 7.05 µM) throughout. Besides, the IC90 was 0.4 µg/mL (≈ 0.705 µM) in assay [3]; greater than 50 µg/mL in assay [4]; greater than 50 µg/mL in [6]; 2 µg/mL (≈ 3.52 µM) in assay [7]; 0.4 µg/mL (≈ 0.705 µM) in [8]; 2 µg/mL (≈ 3.52 µM) in assay [10]. Further, the IC90 in assay [12] and in [14] was 2 µg/mL (≈ 3.52 µM) in each case. In addition, the 50% inhibitory concentration (IC50) in [9] was in the range of 2 to 10 nM; in assay [13], 0.7 to 2 nM.

As to `COc1ccc(F)cc1[C@@H](O)Cn1c(=O)n([C@@H]2CCN(C)C2=O)c(=O)c2c(C)c(-n3nccn3)sc21` [Compound I-166, 1-((R)-2-(5-fluoro-2-methoxyphenyl)-2-hydroxyethyl)-5-methyl-3-((R)-1-methyl-2-oxopyrrolidin-3-yl)-6-(2H-1,2,3-triazol-2-yl)thieno[2,3-d]pyrimidine-2,4(1H,3H)-dione], the “Barley Powdery Mildew Control at 10 ppm” value in assay [1] is “B (provided a compound having from 50 to 69% control of barley powdery mildew)”. Besides, the IC90 in assay [3] is 2 µg/mL (≈ 3.89 µM); in assay [4] it was greater than 50 µg/mL; in [6], greater than 50 µg/mL; in [7], 10 µg/mL (≈ 19.4 µM); in assay [8], 2 µg/mL (≈ 3.89 µM); in assay [10] it was 10 µg/mL (≈ 19.4 µM). The IC90 worked out at 2 µg/mL (≈ 3.89 µM) in assay [12] and 10 µg/mL (≈ 19.4 µM) in assay [14]. Besides, the IC50 was 2 to 10 nM in assay [9] and 0.7 to 2 nM in assay [13].

Take `COc1ccc(F)cc1[C@H](Cn1c(=O)n([C@@H]2CCNC2=O)c(=O)c2c(C)c(-n3nccn3)sc21)O[C@H]1C[C@H](O)C1` [Compound I-186, 1-((R)-2-(5-fluoro-2-methoxyphenyl)-2-((1r,3R)-3-hydroxycyclobutoxy)ethyl)-5-methyl-3-((R)-2-oxopyrrolidin-3-yl)-6-(2H-1,2,3-triazol-2-yl)thieno[2,3-d]pyrimidine-2,4(1H,3H)-dione]: the MIC in [2], in [5] and in assay [11] was 2.1 to 4 µg/mL (≈ 3.68 to 7.01 µM) throughout. The results for the IC50 in assay [9] and in assay [13] were 2 to 10 nM and 0.7 to 2 nM, respectively.

With `COc1ccc(F)cc1[C@H](Cn1c(=O)n([C@H]2CCNC2=O)c(=O)c2c(C)c(-n3nccn3)sc21)O[C@H]1CC[C@@H](O)CC1` [Compound I-187, 1-((R)-2-(5-fluoro-2-methoxyphenyl)-2-(((1 s, 4S)-4-hydroxycyclohexyl)oxy)ethyl)-5-methyl-3-((S)-2-oxopyrrolidin-3-yl)-6-(2H-1,2,3-triazol-2-yl)thieno[2,3-d]pyrimidine-2,4(1H,3H)-dione], the MIC in assay [2], in assay [5] and in assay [11] was 2.1 to 4 µg/mL (≈ 3.51 to 6.68 µM) each time. Besides, the results for the IC50 in [9] and in [13] were 2 to 10 nM and 0.7 to 2 nM, respectively.

Take `COc1ccc(F)cc1[C@H](Cn1c(=O)n([C@@H]2CCNC2=O)c(=O)c2c(C)c(-n3nccn3)sc21)O[C@H]1CC[C@@H](O)CC1` [Compound I-188, 1-((R)-2-(5-fluoro-2-methoxyphenyl)-2-(((1 s, 4S)-4-hydroxycyclohexyl)oxy)ethyl)-5-methyl-3-((R)-2-oxopyrrolidin-3-yl)-6-(2H-1,2,3-triazol-2-yl)thieno[2,3-d]pyrimidine-2,4(1H3H)-dione]: the MIC in assay [2] was in the range of 0.25 to 1 µg/mL (≈ 0.418 to 1.67 µM); in assay [5], 1.1 to 2 µg/mL (≈ 1.84 to 3.34 µM); in [11], 0.25 to 1 µg/mL (≈ 0.418 to 1.67 µM). Besides, the results for the IC50 in assay [9] and in assay [13] were 2 to 10 nM and 0.7 to 2 nM, respectively.

Turning to `Cc1c(-n2nccn2)sc2c1c(=O)n([C@@H]1CCN(C)C1=O)c(=O)n2C[C@H](O[C@H]1CC[C@@H](O)CC1)c1cc(F)ccc1O` [Compound I-189, 1-((R)-2-(5-fluoro-2-hydroxyphenyl)-2-(((1s, 4S)-4-hydroxycyclohexyl)oxy)ethyl)-5-methyl-3-((R)-1-methyl-2-oxopyrrolidin-3-yl)-6-(2H-1,2,3-triazol-2-yl)thieno[2,3-d]pyrimidine-2,4(1H, 3H)-dione], the minimal inhibitory concentration (MIC) in [2], in [5] and in assay [11] was 2.1 to 4 µg/mL (≈ 3.51 to 6.68 µM) each time. The figures for the IC50 in assay [9] and in assay [13] were 2 to 10 nM and 0.7 to 2 nM, respectively.

`Cc1c(-n2nccn2)sc2c1c(=O)n([C@H]1CCN(C)C1=O)c(=O)n2C[C@H](O[C@H]1CC[C@@H](O)CC1)c1cc(F)ccc1O` [Compound I-190, 1-((R)-2-(5-fluoro-2-hydroxyphenyl)-2-(((1 s, 4S)-4-hydroxycyclohexyl)oxy)ethyl)-5-methyl-3-((S)-1-methyl-2-oxopyrrolidin-3-yl)-6-(2H-1,2,3-triazol-2-yl)thieno[2,3-d]pyrimidine-2,4(1H,3H)-dione]: the MIC in assay [2], in assay [5] and in [11] was 2.1 to 4 µg/mL (≈ 3.51 to 6.68 µM) each time. Also, the IC50 in assay [9] was 10 to 100 nM; in assay [13], 0.7 to 2 nM.

For the origin of these results see patent US20190330224A1, “ACC INHIBITORS AND USES THEREOF” (Gilead Apollo, LLC, priority 2015, published 2019).
